Measurements reported in patent publication US4368200A, “Heterocyclic derivatives of (4-phenyl-piperazine-1-yl-aryloxymethyl-1,3-dioxolan-2-yl)-methyl-1H-imi dazoles and 1H-1,2,4-triazoles” (Janssen Pharmaceutica N.V., priority 1981, dated 1983).

Tested on: Candida albicans
Test: Experiment A: activity against vaginal candidosis in rats
Assay type: in vivo, Female Wistar rats
Conditions: po, 336 h, orally once a day for two days starting from the day of infection, active at the 14th day after infection, read-out: Vaginal candidosis in rats: lowest effective dose in mg/kg orally
Experimental: Female Wistar rats of ±100 g body weight are used. They are ovariectomized and hysterectomized and after three weeks of recovery, 100 μg of oestradiol undecylate in sesame oil is given subcutaneously once a week for 3 consecutive weeks. The thus induced pseudo-oestrus is controlled by microscopic examination of vaginal smears. Food and water are left available ad libitum. The rats are infected intravaginally with 8.10^5 cells of Candida albicans, grown on Sabouraud broth for 48 hours at 37° C. and diluted with saline. The data of infection varies from day +25 to day +32 after surgical intervention, depending on the appearance of signs of induced pseudo-oestrus. The drugs under investigation are administered orally once a day for two days starting from the day of infection. For each experiment there are placebo treated controls. The results are assessed by taking vaginal smears with sterile swabs on several days after the infection. The swabs are put into Sabouraud broth in petri-dishes and incubated for 48 hours at 37° C. If no growth of Candida albicans occurs, i.e., when the animals are negative at the end of the experiment, this is due to drug administration because it never happens in placebo-treated controls. The table below gives the lowest oral dose of the drug under investigation which is found active at the 14th day after infection.

Structure (SMILES) | minimal effective dose [mg/kg]
Clc1ccc([C@@]2(Cn3ccnc3)OC[C@H](COc3ccc(N4CCN(c5ccc(-n6cccn6)cc5)CC4)cc3)O2)c(Cl)c1 (relative stereo) | 2.5
Clc1ccc([C@@]2(Cn3cncn3)OC[C@H](COc3ccc(N4CCN(c5ccc(-n6cccn6)cc5)CC4)cc3)O2)c(Cl)c1 (relative stereo) | 2.5
Clc1ccc([C@@]2(Cn3ccnc3)OC[C@H](COc3ccc(N4CCN(c5ccc(-n6ccnc6)cc5)CC4)cc3)O2)c(Cl)c1 (relative stereo) | 1.25
Clc1ccc([C@@]2(Cn3cncn3)OC[C@H](COc3ccc(N4CCN(c5ccc(-n6ccnc6)cc5)CC4)cc3)O2)c(Cl)c1 (relative stereo) | 1.25
Clc1ccc([C@@]2(Cn3ccnc3)OC[C@H](COc3ccc(N4CCN(c5ccc(-n6cncn6)cc5)CC4)cc3)O2)c(Cl)c1 (relative stereo) | 0.63
Clc1ccc([C@@]2(Cn3cncn3)OC[C@H](COc3ccc(N4CCN(c5ccc(-n6cncn6)cc5)CC4)cc3)O2)c(Cl)c1 (relative stereo) | 0.63
CSc1ncn(-c2ccc(N3CCN(c4ccc(OC[C@H]5CO[C@](Cn6ccnc6)(c6ccc(Cl)cc6Cl)O5)cc4)CC3)cc2)n1 (relative stereo) | 2.5
CSc1ncn(-c2ccc(N3CCN(c4ccc(OC[C@H]5CO[C@](Cn6cncn6)(c6ccc(Cl)cc6Cl)O5)cc4)CC3)cc2)n1 (relative stereo) | 1.25
CSc1nc(C)n(-c2ccc(N3CCN(c4ccc(OC[C@H]5CO[C@](Cn6ccnc6)(c6ccc(Cl)cc6Cl)O5)cc4)CC3)cc2)n1 (relative stereo) | 2.5
CSc1nc(C)n(-c2ccc(N3CCN(c4ccc(OC[C@H]5CO[C@](Cn6cncn6)(c6ccc(Cl)cc6Cl)O5)cc4)CC3)cc2)n1 (relative stereo) | ≤ 0.63
CSc1nnc(C)n1-c1ccc(N2CCN(c3ccc(OC[C@H]4CO[C@](Cn5cncn5)(c5ccc(Cl)cc5Cl)O4)cc3)CC2)cc1 (relative stereo) | 2.5
CSc1nncn1-c1ccc(N2CCN(c3ccc(OC[C@H]4CO[C@](Cn5cncn5)(c5ccc(Cl)cc5Cl)O4)cc3)CC2)cc1 (relative stereo) | 2.5
Cc1ncnn1-c1ccc(N2CCN(c3ccc(OC[C@H]4CO[C@](Cn5cncn5)(c5ccc(Cl)cc5Cl)O4)cc3)CC2)cc1 (relative stereo) | 0.63
Cc1nn(C)c(=O)n1-c1ccc(N2CCN(c3ccc(OC[C@H]4CO[C@](Cn5ccnc5)(c5ccc(Cl)cc5Cl)O4)cc3)CC2)cc1 (relative stereo) | 0.63
Cc1nn(C)c(=O)n1-c1ccc(N2CCN(c3ccc(OC[C@H]4CO[C@](Cn5cncn5)(c5ccc(Cl)cc5Cl)O4)cc3)CC2)cc1 (relative stereo) | ≤ 0.63
Clc1ccc([C@@]2(Cn3cncn3)OC[C@H](COc3ccc(N4CCN(c5ccc(-n6cnnn6)cc5)CC4)cc3)O2)c(Cl)c1 (relative stereo) | < 2.5
Cn1ncn(-c2ccc(N3CCN(c4ccc(OC[C@H]5CO[C@](Cn6cncn6)(c6ccc(Cl)cc6Cl)O5)cc4)CC3)cc2)c1=O (relative stereo) | ≥ 0.63
Cn1ncn(-c2ccc(N3CCN(c4ccc(OC[C@H]5CO[C@](Cn6ccnc6)(c6ccc(Cl)cc6Cl)O5)cc4)CC3)cc2)c1=O (relative stereo) | 1
CCn1ncn(-c2ccc(N3CCN(c4ccc(OC[C@H]5CO[C@](Cn6ccnc6)(c6ccc(Cl)cc6Cl)O5)cc4)CC3)cc2)c1=O (relative stereo) | 1.25
CCCn1nc(C)n(-c2ccc(N3CCN(c4ccc(OC[C@H]5CO[C@](Cn6ccnc6)(c6ccc(Cl)cc6Cl)O5)cc4)CC3)cc2)c1=O (relative stereo) | 0.63
CCn1nc(C)n(-c2ccc(N3CCN(c4ccc(OC[C@H]5CO[C@](Cn6cncn6)(c6ccc(Cl)cc6Cl)O5)cc4)CC3)cc2)c1=O (relative stereo) | < 0.63
CCCn1nc(C)n(-c2ccc(N3CCN(c4ccc(OC[C@H]5CO[C@](Cn6cncn6)(c6ccc(Cl)cc6Cl)O5)cc4)CC3)cc2)c1=O (relative stereo) | 0.5
CCn1ncn(-c2ccc(N3CCN(c4ccc(OC[C@H]5CO[C@](Cn6cncn6)(c6ccc(Cl)cc6Cl)O5)cc4)CC3)cc2)c1=O (relative stereo) | ≥ 0.16
CCn1nc(C)n(-c2ccc(N3CCN(c4ccc(OC[C@H]5CO[C@](Cn6ccnc6)(c6ccc(Cl)cc6Cl)O5)cc4)CC3)cc2)c1=O (relative stereo) | 1.25
